# From patent publication US20060030608A1, “Anti aromatase compounds pharmaceutical compositions and uses thereof” (Boehringer Ingelheim Pharmaceuticals, Inc., priority 2004, published 2006)
# Target: T1, recombinant human aromatase (CYP19) (Homo sapiens, UniProt P11511)
# T1 construct: purchased GENTEST 456260; host or cells: baculovirus/insect cells
# T1 sequence (P11511 1-503): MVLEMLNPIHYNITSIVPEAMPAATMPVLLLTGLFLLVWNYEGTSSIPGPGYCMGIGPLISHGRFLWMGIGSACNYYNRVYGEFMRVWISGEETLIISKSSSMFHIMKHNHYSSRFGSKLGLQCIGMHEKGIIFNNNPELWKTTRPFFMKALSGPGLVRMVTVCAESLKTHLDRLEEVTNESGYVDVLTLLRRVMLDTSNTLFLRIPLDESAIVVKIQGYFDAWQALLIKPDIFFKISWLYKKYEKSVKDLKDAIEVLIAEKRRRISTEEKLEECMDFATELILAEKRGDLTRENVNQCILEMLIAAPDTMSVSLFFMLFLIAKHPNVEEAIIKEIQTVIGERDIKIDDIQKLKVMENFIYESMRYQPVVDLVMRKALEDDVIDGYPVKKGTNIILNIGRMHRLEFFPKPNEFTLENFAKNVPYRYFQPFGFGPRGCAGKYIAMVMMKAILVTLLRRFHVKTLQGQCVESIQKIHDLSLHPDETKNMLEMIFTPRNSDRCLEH
# Assay: aromatase (CYP19) inhibition assay, fluorometric substrate dibenzylfluorescein (DBF)
# Format: biochemical
# Details: recombinant human aromatase (baculovirus/insect cell expressed), test compounds 2×10^−5 to 10^−9 M, 37° C. for 30 minutes
# Description: Compounds of the invention were evaluated for inhibiting aromatase enzyme using the following aromatase (CYP19) inhibition assay which detects aromatase inhibitors utilizing recombinant human aromatase (baculovirus/insect cell expressed) and the fluorometric substrate dibenzylfluorescein (DBF). Aromatase will metabolize DBF to fluorescein which will give the fluorescent signal. The assay is conducted in 96-well black, Falcon plate (BD Biosciences, Cat. No. 353241) in the total volume of 100 μL per well. 40 μL of the Cofactor/Dilution buffer (1) is added to the plate followed by 10 μL of serially diluted test compounds in duplicates for final concentration of 2×10^−5 to 10^−9 M, or 10 μL of phosphate buffer for positive and background control wells. After 10 minutes of preincubation at 37° C., the reaction is initiated by adding 50 μL of prewarmed Enzyme/Substrate Mix (2) to the test compound wells, and positive control wells (maximum activity of CYP19, which represents 100%). The plate is incubated at 37° C. for 30 minutes. To stop the reaction, 37.5 μL of 2 N NaOH is added to all wells. For background controls, 50 μL of Enzyme/Substrate Mix (2) are added into background control wells. The plate is left at 37° C. incubator for 2 hours to develop adequate signal to background ratio. Fluorescence per well is measured in the fluorescent plate reader. The metabolite concentration is measured using excitation wavelength of 485 nm and emission wavelength of 538 nm. Inhibition of aromatase by test compounds is expressed in percentage relative to positive controls. IC50 values for the test compounds are derived from non-liner curve fitting. • (1) Cofactor/Dilution buffer: 50 mM phosphate buffer, pH=7.4; 1× NADPH regenerating system A (20× stock, GENTEST, Cat. No. 451220); 1× NAPDH regenerating system B (100× stock, GENTEST, Cat. No. 451200) and 0.2 mg/mL control protein (Insect Cell Control Supersomes, GENTEST, Cat. No. 456200) • (2) Enzyme/Substrate Mix: 50 mM phosphate buffer, pH=7.4, 0.02 nmole/mL human aromatase protein (Human CYP19+P450 Reductase Supersomes, GENTEST, Cat. No. 456260); 0.4 μM dibenzylfluorescein (DBF, GENTEST, Cat. No. 451750, prepared at 2 mM concentration in acetonitrile); 0.5 mg/mL control protein (Insect Cell Control Supersomes, GENTEST, Cat. No. 456200).
row,Compound,aromatase inhibition
1,"CC(C)(CC(O)(Cc1cc2cnccc2[nH]1)C(F)(F)F)c1ccc(F)cc1 (centres unmarked) [1,1,1-Trifluoro-4-(4-fluorophenyl)-4-methyl-2-(1H-pyrrolo [3,2-c]pyridin-2-ylmethyl)pentan-2-ol]",showed aromatase inhibition
2,"COc1ccc(F)cc1C(C)(C)CC(O)(Cc1cc2ccncc2[nH]1)C(C)(C)C (centres unmarked) [5-(5-Fluoro-2-methoxyphenyl)-2,2,5-trimethyl-3-(1H-pyrrolo[2,3-c]pyridin-2-ylmethyl)hexan-3-ol]",showed aromatase inhibition
3,"COc1ccc(F)cc1C(C)(C)CC(O)(Cc1cc2ncncc2[nH]1)C(F)(F)F (centres unmarked) [1,1,1-Trifluoro-4-(5-fluoro-2-methoxyphenyl)-4-methyl-2-(5H-pyrrolo[3,2-d]pyrimidin-6-ylmethyl)pentan-2-ol]",showed aromatase inhibition
4,"COc1ccc(F)cc1C(C)(C)CC(O)(Cc1cc2cncnc2[nH]1)C(F)(F)F (centres unmarked) [1,1,1-Trifluoro-4-(5-fluoro-2-methoxyphenyl)-4-methyl-2-(7H-pyrrolo[2,3-d]pyrimidin-6-ylmethyl)pentan-2-ol]",showed aromatase inhibition
5,"Cc1ccc(F)cc1C(C)(C)CC(O)(Cc1cc2ncncc2[nH]1)C(F)(F)F (centres unmarked) [1,1,1-Trifluoro-4-(5-fluoro-2-methylphenyl)-4-methyl-2-(5H-pyrrolo[3,2-d]pyrimidin-6-ylmethyl)pentan-2-ol]",showed aromatase inhibition
6,"COc1cc(F)ccc1C(C)(C)CC(O)(Cc1cc2ccncc2[nH]1)C(F)(F)F (centres unmarked) [1,1,1-Trifluoro-4-(4-fluoro-2-methoxyphenyl)-4-methyl-2-(1H-pyrrolo[2,3-c]pyridin-2-ylmethyl)pentan-2-ol]",showed aromatase inhibition
7,"CC(C)(CC(O)(Cc1cc2ccncc2[nH]1)C(F)(F)F)c1cccc2c1OCC2 (centres unmarked) [4-(2,3-Dihydrobenzofuran-7-yl)-1,1,1-trifluoro-4-methyl-2-(1H-pyrrolo[2,3-c]pyridin-2-ylmethyl)pentan-2-ol]",showed aromatase inhibition
8,"Cc1ccc(F)cc1C(C)(C)CC(O)(Cc1cc2cnccc2[nH]1)C1CC1 (centres unmarked) [2-Cyclopropyl-4-(5-fluoro-2-methylphenyl)-4-methyl-1-(1H-pyrrolo[3,2-c]pyridin-2-yl)pentan-2-ol]",showed aromatase inhibition
9,"CC(C)(CC(O)(Cc1cc2cnccc2[nH]1)C(F)(F)F)c1ccccc1 (centres unmarked) [1,1,1-Trifluoro-4-methyl-4-phenyl-2-(1H-pyrrolo [3,2-c]pyridin-2-ylmethyl)pentan-2-ol]",showed aromatase inhibition
10,"Cc1cc2c(c(C(C)(C)CC(O)(Cc3cc4ccncc4[nH]3)C(F)(F)F)c1)OCC2 (centres unmarked) [1,1,1-Trifluoro-4-methyl-4-(5-methyl-2,3-dihydrobenzofuran-7-yl)-2-(1H-pyrrolo[2,3-c]pyridin-2-ylmethyl)pentan-2-ol]",showed aromatase inhibition
11,"COc1ccc(F)cc1C(C)(C)CC(O)(Cc1cc2ccncc2s1)C(F)(F)F (centres unmarked) [1,1,1-Trifluoro-4-(5-fluoro-2-methoxyphenyl)-4-methyl-2-thieno[2,3-c]pyridin-2-ylmethylpentan-2-ol]",showed aromatase inhibition
12,"CC(C)C(O)(Cc1cc2ccncc2[nH]1)CC(C)(C)c1cc(Cl)cc2c1OCC2 (centres unmarked) [5-(5-Chloro-2,3-dihydrobenzofuran-7-yl)-2,5-dimethyl-3-(1H-pyrrolo[2,3-c]pyridin-2-ylmethyl)hexan-3-ol]",showed aromatase inhibition
13,"CC(C)(CC(O)(Cc1cc2ccncc2[nH]1)C1CC1)c1cc(Cl)cc2c1OCC2 (centres unmarked) [4-(5-Chloro-2,3-dihydrobenzofuran-7-yl)-2-cyclopropyl-4-methyl-1-(1H-pyrrolo[2,3-c]pyridin-2-yl)pentan-2-ol]",showed aromatase inhibition
14,"COc1ccc(F)cc1C(C)(C)CC(O)(Cc1cc2ccncc2[nH]1)C1CC1 (centres unmarked) [2-Cyclopropyl-4-(5-fluoro-2-methoxyphenyl)-4-methyl-1-(1H-pyrrolo[2,3-c]pyridin-2-yl)pentan-2-ol]",showed aromatase inhibition
